Source: BindingDB's records for doi:10.1016/s0960-894x(03)00680-2 (Merck Research Laboratories, 2003)
pIC50: −log10 of the molar value.

Experiments:
Test in all cases: Protease Inhibition Assay
[1] = biological target: T1, Dimer of Gag-Pol polyprotein [489-587,Q496K,L499I,M525I,N526D,M535I,R546K,L552P,A560V,G562S,I573V,L579M,I582L] (Human immunodeficiency virus 1, UniProt P12497, A560V/G562S/I573V/I582L/L499I/L552P/L579M/M525I/M535I/N526D/Q496K/R546K)
T1 construct: 489-587
Protocol: (§1) Assay of HIV protease inhibition was performed by peptide cleavage using the substrate Val-Ser-Gln-Asn-beta-naphthylalanine*Pro-Ile-Val. Products of the cleavage reaction were quantified by HPLC detection, and data were fit to nonlinear least squares equations for determination of steady-state Michaelis-Menten kinetics.

[2] = biological target: T2, Dimer of Gag-Pol polyprotein [489-587,Q496K,L499I,M535I,I543V,Q547E,L552P,I553V,V566I,V571F,I573V,L579M,I582L] (Human immunodeficiency virus 1, UniProt P12497, I543V/I553V/I573V/I582L/L499I/L552P/L579M/M535I/Q496K/Q547E/V566I/V571F)
T2 construct: 489-587
Protocol: as §1

[3] = biological target: T3, Dimer of Gag-Pol polyprotein [489-587,Q496K,L499I,N526S,R530K,M535I,I543V,I551V,L552P,A560V,V566I,V571A,L579M,I582L] (Human immunodeficiency virus 1, UniProt P12497, A560V/I543V/I551V/I582L/L499I/L552P/L579M/M535I/N526S/Q496K/R530K/V566I/V571A)
T3 construct: 489-587
Protocol: as §1

[4] = biological target: T4, Dimer of Gag-Pol polyprotein [489-587,Q496K] (Human immunodeficiency virus 1, UniProt P12497, Q496K); details: pH 5.5; 30 °C
T4 construct: 489-587
Protocol: as §1

Row | Compound | pIC50 [1] | pIC50 [2] | pIC50 [3] | pIC50 [4]
1 | O=C(N[C@H]1c2ccccc2OC[C@H]1O)[C@H](Cc1ccncc1)C[C@H](O)CN1CCN(Cc2cc3ccsc3s2)C[C@H]1C(=O)NCC(F)(F)F [(2S)-1-[(2S,4R)-2-hydroxy-4-{[(3S,4S)-3-hydroxy-3,4-dihydro-2H-1-benzopyran-4-yl]carbamoyl}-4-(pyridin-4-ylmethyl)butyl]-4-{thieno[2,3-b]thiophen-2-ylmethyl}-N-(2,2,2-trifluoroethyl)piperazine-2-carboxamide] | 8.92 | 7.70 | 8.32 | 10.15
2 | O=C(N[C@H]1c2ccccc2OC[C@H]1O)[C@H](Cc1cccnc1)C[C@H](O)CN1CCN(Cc2cc3ccsc3s2)C[C@H]1C(=O)NCC(F)(F)F [(2S)-1-[(2S,4R)-2-hydroxy-4-{[(3S,4S)-3-hydroxy-3,4-dihydro-2H-1-benzopyran-4-yl]carbamoyl}-4-(pyridin-3-ylmethyl)butyl]-4-{thieno[2,3-b]thiophen-2-ylmethyl}-N-(2,2,2-trifluoroethyl)piperazine-2-carboxamide] | 9.37 | 8.30 | 8.49 | 10.52
